Holding throughout (assay type): functional, Homo sapiens
Details in all cases: Homo sapiens, read-out: Cell Viability; for viability at 10 µM: Concentration 10 uM; for viability at 1 µM: Concentration 1 uM

In assay [1] the test system is Colon cancer organoid. The assay is described as follows: Targeting of F14 CAF-induced therapy resistance in O23 CRC organoid-stroma co-culture. Cell viability is reported with SN-38.
In assay [2] the test system is Colon cancer organoid. Description: Targeting of F14 CAF-induced therapy resistance in O23 CRC organoid-stroma co-culture. Cell viability is reported with Gefitinib.
Assay [3] deals with Colon cancer organoid. Description: Targeting of F14 CAF-induced therapy resistance in O14 CRC organoid-stroma co-culture. Cell viability is reported with Gefitinib.
Assay [4] deals with Colon cancer organoid. Description: Targeting of F14 CAF-induced therapy resistance in O14 CRC organoid-stroma co-culture. Cell viability is reported without Gefitinib.
Assay [5] concerns Colon cancer organoid. Description: Targeting of F14 CAF-induced therapy resistance in O23 CRC organoid-stroma co-culture. Cell viability is reported without Gefitinib.

Regarding `CC(C)N(CCCNC(=O)Nc1ccc(C(C)(C)C)cc1)C[C@H]1O[C@@H](n2cc(Br)c3c(N)ncnc32)[C@H](O)[C@@H]1O`, the viability – broadly, a read-out of living cells in per cent, often relative to untreated cells – at 10 µM was 19.8% in the assay with Colon cancer organoid [1]; 34% in the assay with Colon cancer organoid [2]; 45.4% in the assay with Colon cancer organoid [3]; 69.6% with Colon cancer organoid [4]; 41.3% in the assay on Colon cancer organoid [5].

As to `CCCCN(Cc1ccccc1)C(=O)c1ccc(S(=O)(=O)Nc2ccccc2)cc1`, the viability at 10 µM in the assay on Colon cancer organoid [1] is 63.6%; in the assay on Colon cancer organoid [2] it was 52.2%; in the assay with Colon cancer organoid [3], 48.8%; with Colon cancer organoid [4], 80.8%; in the assay with Colon cancer organoid [5], 125%.

As to `Cc1noc([C@H]2C[C@@H](c3ccc(C(F)(F)F)cc3)CN(C(=O)N3CCS(=O)(=O)C3)C2)n1` [BAY-448], the viability at 10 µM in the assay on Colon cancer organoid [1] was 95.1%; in the assay on Colon cancer organoid [2] it was 58%; in the assay with Colon cancer organoid [3], 49%; with Colon cancer organoid [4], 99.7%; in the assay with Colon cancer organoid [5], 124%.

For the compound `CN(C)[C@@H]1CCN(c2cc(-c3ccccc3)nc3ccnn23)C1` [(R)-ZINC-3573], the viability at 10 µM was 70.6% with Colon cancer organoid [1]; 61.7% in the assay with Colon cancer organoid [2]; 30.9% in the assay with Colon cancer organoid [3]; 68.2% in the assay with Colon cancer organoid [4]; 130% with Colon cancer organoid [5].

For `COc1cc(C(=O)N2CC[C@@H](O)[C@@H](N)C2)cc2nc(-c3cc4ccccc4n3CC3CC3)n(C)c12`, the viability at 10 µM with Colon cancer organoid [1] was found to be 75.5%; in the assay on Colon cancer organoid [2], 73.5%; in the assay on Colon cancer organoid [3], 58.8%; with Colon cancer organoid [4], 107%; in the assay on Colon cancer organoid [5] it was 112%.

Regarding `CC(=O)Nc1cccc(-n2c(=O)n(C3CC3)c(=O)c3c(Nc4ccc(I)cc4F)n(C)c(=O)c(C)c32)c1` [TRAMETINIB], the viability at 10 µM came out at 1.6% with Colon cancer organoid [1]; 1.61% in the assay with Colon cancer organoid [2]; 0.402% with Colon cancer organoid [3]; 1.6% with Colon cancer organoid [4]; 1.69% in the assay on Colon cancer organoid [5].

Take `CC(C)(C)OC(=O)N1CCCC1CNC1CCC(c2cc(F)ccc2F)(S(=O)(=O)c2ccc(Cl)cc2)CC1` (stereo not given) [GSI-NC]: the viability at 10 µM was found to be 78.6% in the assay with Colon cancer organoid [1]; 42.1% in the assay with Colon cancer organoid [2]; 52.1% in the assay on Colon cancer organoid [3]; 74.5% in the assay on Colon cancer organoid [4]; 109% with Colon cancer organoid [5].

As to `C[C@H](c1ccc(F)cc1)N(Cc1ccc(Cl)c(C(=O)O)c1)C(=O)c1cnc2ccccc2c1` [PF-05257137], the viability at 10 µM with Colon cancer organoid [1] amounted to 93.8%; with Colon cancer organoid [2], 41.2%; in the assay on Colon cancer organoid [3], 51.5%; in the assay with Colon cancer organoid [4], 84%; with Colon cancer organoid [5] it was 81.5%.

In the case of `CNC(=O)c1ccc(Nc2ncc(C(F)(F)F)c(NCc3nccnc3N(C)S(C)(=O)=O)n2)cc1` [DEFACTINIB], the viability at 10 µM with Colon cancer organoid [1] turned out to be 39.9%; with Colon cancer organoid [2], 40.5%; in the assay on Colon cancer organoid [3] it was 17.9%; with Colon cancer organoid [4] it was 76.8%; in the assay on Colon cancer organoid [5], 78.6%.

For the compound `CN(C)C(=O)c1ccc(-c2cc(C(=O)N[C@@H]3CCc4ccccc43)no2)cc1O`, the viability at 10 µM in the assay on Colon cancer organoid [1] was 64.6%; in the assay with Colon cancer organoid [2], 61.6%; with Colon cancer organoid [3], 33.6%; in the assay with Colon cancer organoid [4], 77%; in the assay with Colon cancer organoid [5], 83.1%.

Regarding `CC(C)CC(=O)N1CCc2nc(-c3ccc(Br)cc3)nc(N(C)Cc3ccccc3)c2C1` [THPP-1-NC], the viability at 1 µM in the assay on Colon cancer organoid [1] turned out to be 70.5%; in the assay on Colon cancer organoid [2], 47.3%; with Colon cancer organoid [3] it was 39.6%; in the assay with Colon cancer organoid [4] it was 95.7%; in the assay with Colon cancer organoid [5], 127%.

Turning to `Cc1cc(Nc2nccc(C)n2)cc(-c2cnc([C@@]3(O)CC[C@H](C(=O)O)C(C)(C)C3)s2)c1` [MRL-SYKi], the viability at 1 µM in the assay with Colon cancer organoid [1] amounted to 81.4%; with Colon cancer organoid [2], 63.4%; in the assay with Colon cancer organoid [3] it was 32.9%; in the assay on Colon cancer organoid [4] it was 137%; in the assay with Colon cancer organoid [5], 127%.

Regarding `CNC(=O)c1cc(C(=O)N[C@H]2[C@@H]3COC[C@@H]32)cc2c1O[C@@H](CF)[C@@H]2c1ccccc1` [GSK943], the viability at 10 µM was 64.3% in the assay with Colon cancer organoid [1]; 76.1% in the assay with Colon cancer organoid [2]; 30.9% with Colon cancer organoid [3]; 75.9% with Colon cancer organoid [4]; 67.7% with Colon cancer organoid [5].

As to `CCCc1cc(C)[nH]c(=O)c1CNC(=O)c1cc(-c2ccc(N3CCN(C(C)C)CC3)nc2)cc2c1cnn2C(C)C`, the viability at 10 µM came out at 102% with Colon cancer organoid [1]; 68.8% in the assay on Colon cancer organoid [2]; 77.8% in the assay with Colon cancer organoid [3]; 95.6% in the assay with Colon cancer organoid [4]; 152% in the assay with Colon cancer organoid [5].

For the compound `Cc1cccc(-c2cnc3occ(-c4ccc(C(=O)O)c(C5CCCC5)c4)c3c2)c1`, the viability at 10 µM was 66.7% in the assay on Colon cancer organoid [1]; 75.6% in the assay with Colon cancer organoid [2]; 52.4% in the assay with Colon cancer organoid [3]; 112% with Colon cancer organoid [4]; 111% with Colon cancer organoid [5].

For the compound `CC(=O)Nc1nc(CN2CCC[C@H](Cc3cc(C)nc(C)c3)C2)cs1` [JNJ-73924149], the viability at 10 µM in the assay on Colon cancer organoid [1] turned out to be 79.9%; with Colon cancer organoid [2] it was 79.3%; in the assay with Colon cancer organoid [3], 46.2%; in the assay on Colon cancer organoid [4] it was 109%; in the assay on Colon cancer organoid [5], 125%.

In the case of `Cc1cc(C)cc(C(=O)NOCCCCCC(=O)NO)c1`, the viability at 10 µM with Colon cancer organoid [1] is 130%; in the assay on Colon cancer organoid [2], 220%; with Colon cancer organoid [3] it was 31.1%; in the assay with Colon cancer organoid [4], 28.3%; with Colon cancer organoid [5], 193%.

Consider `COc1c(C)cc(NC(=O)c2nn(Cc3ccc(F)cc3)c3c2CN(C(=O)c2ccc[nH]2)C[C@]3(C)C(N)=O)cc1C`, for which the viability at 10 µM is 73.7% with Colon cancer organoid [1]; 66.4% in the assay with Colon cancer organoid [2]; 52.8% in the assay with Colon cancer organoid [3]; 121% with Colon cancer organoid [4]; 81.4% with Colon cancer organoid [5].

For the compound `NC1(c2ccc(-c3nc4ccn5c(=O)[nH]nc5c4cc3-c3ccccc3)cc2)CCC1`, the viability at 10 µM in the assay with Colon cancer organoid [1] came to 19.5%; with Colon cancer organoid [2], 19.9%; with Colon cancer organoid [3], 32.7%; in the assay on Colon cancer organoid [4], 53.7%; in the assay on Colon cancer organoid [5], 24.5%.

Turning to `O=C(/C=C/N1C[C@H]2C[C@@H]1CN2c1ccccn1)c1ccccc1O`, the viability at 10 µM in the assay with Colon cancer organoid [1] is 45.4%; with Colon cancer organoid [2], 38.6%; with Colon cancer organoid [3], 70.1%; with Colon cancer organoid [4] it was 109%; in the assay on Colon cancer organoid [5] it was 77.2%.

Take `N#Cc1ccc(Nc2ccc3[nH]c(=O)[nH]c3c2)c(Cl)c1` [TP-021n]: the viability at 1 µM in the assay on Colon cancer organoid [1] was determined as 63.2%; in the assay on Colon cancer organoid [2], 47.2%; in the assay on Colon cancer organoid [3], 59.2%; with Colon cancer organoid [4], 115%; in the assay on Colon cancer organoid [5], 161%.

As for `COc1cc(Nc2ncc3c(n2)-c2ccc(Cl)cc2C(c2c(F)cccc2OC)=NC3)ccc1C(=O)O` [ALISERTIB], the viability at 10 µM amounted to 46.6% in the assay with Colon cancer organoid [1]; 13.7% with Colon cancer organoid [2]; 7.3% in the assay with Colon cancer organoid [3]; 16.2% in the assay with Colon cancer organoid [4]; 32.9% in the assay on Colon cancer organoid [5].

Turning to `Cc1nc(N2CC[C@H](O)C2)ncc1-c1cc(C(F)(F)F)cc2[nH]ncc12`, the viability at 10 µM with Colon cancer organoid [1] is 82.7%; in the assay with Colon cancer organoid [2] it was 51.5%; with Colon cancer organoid [3], 21.1%; in the assay with Colon cancer organoid [4], 91%; in the assay on Colon cancer organoid [5] it was 123%.

For `C[C@H](c1ccc(F)cc1)N(Cc1cccc(C(=O)O)c1)C(=O)c1cnc2ccccc2c1` [PF-05105679], the viability at 10 µM with Colon cancer organoid [1] was 98.3%; with Colon cancer organoid [2], 45.6%; with Colon cancer organoid [3] it was 61.2%; in the assay on Colon cancer organoid [4], 126%; in the assay on Colon cancer organoid [5] it was 104%.

Consider `CC(C)Oc1ccc(-c2c[nH]cc2CN(C)CCN)cc1`, for which the viability at 10 µM in the assay on Colon cancer organoid [1] was found to be 77%; with Colon cancer organoid [2], 47.4%; in the assay with Colon cancer organoid [3], 31.6%; with Colon cancer organoid [4], 25.7%; with Colon cancer organoid [5], 132%.

Turning to `Cc1cc(C)c(-n2ccn3nc(-c4cccnc4)cc23)cc1NC(=O)c1cc(C#N)cc(S(F)(F)(F)(F)F)c1` [BAY-826], the viability at 1 µM with Colon cancer organoid [1] stood at 64.2%; in the assay on Colon cancer organoid [2] it was 58.2%; with Colon cancer organoid [3], 58.7%; in the assay with Colon cancer organoid [4], 145%; in the assay on Colon cancer organoid [5], 102%.

`COc1cc(Nc2nc(C)cc(-c3cnn4nc(OC)ccc34)n2)cc(C(F)(F)F)c1`: the viability at 10 µM with Colon cancer organoid [1] came to 59.6%; in the assay with Colon cancer organoid [2], 68.9%; in the assay on Colon cancer organoid [3] it was 52.6%; in the assay on Colon cancer organoid [4], 115%; in the assay with Colon cancer organoid [5], 119%.

Turning to `CN(C)C(=O)/C(C#N)=C/c1ccc(-c2nc3cnc4c(ccn4C)c3n2C2CCCCC2)o1`, the viability at 10 µM with Colon cancer organoid [1] worked out at 46.5%; in the assay on Colon cancer organoid [2], 53.6%; in the assay on Colon cancer organoid [3] it was 63.9%; in the assay on Colon cancer organoid [4] it was 107%; in the assay with Colon cancer organoid [5] it was 83.6%.

Consider `N#CN1CC[C@@H](C(=O)Nc2nc3c(s2)CN(C(=O)CN=[N+]=[N-])CC3)C1` [JYQ88], for which the viability at 10 µM in the assay on Colon cancer organoid [1] was determined as 78.4%; in the assay with Colon cancer organoid [2], 45.5%; in the assay on Colon cancer organoid [3], 34.4%; in the assay with Colon cancer organoid [4] it was 137%; with Colon cancer organoid [5], 76.5%.

On to `O=C(Nc1ccc(-n2nc(-c3cccnc3)cc2C(F)(F)F)cn1)c1ccc(-c2ccccc2)c(F)c1` [BI 2049], for which the viability at 1 µM in the assay on Colon cancer organoid [1] amounted to 97.9%; in the assay with Colon cancer organoid [2], 32.7%; in the assay with Colon cancer organoid [3] it was 24.6%; in the assay on Colon cancer organoid [4], 132%; with Colon cancer organoid [5], 103%.

Turning to `COc1ccccc1C(=O)Nc1cc2c(cc1N1CCNCC1C)n(C)c(=O)n2C` (stereo not given), the viability at 10 µM came out at 55.3% with Colon cancer organoid [1]; 56.5% in the assay on Colon cancer organoid [2]; 66% in the assay on Colon cancer organoid [3]; 98.7% with Colon cancer organoid [4]; 84% in the assay on Colon cancer organoid [5].

For the origin of these results see ChEMBL document CHEMBL5608113, “Targeting of CAF-induced therapy resistance in CRC organoid-stroma co-cultures” (2024).
